This is an account of results in ChEMBL document CHEMBL6114962, “Nucleoside antiviral agents with atypical structures and new targets” (Bioorg Med Chem Lett, 2025).

≈ marks a conversion by molar mass, not a printed value. Where only a bound is given, the exact number is not on record here.

The subject of data set [1] is Hepatitis C virus. In words: Antiviral activity against Hepatitis C virus infected in human Huh-7 cells assessed as reduction in viral infection incubated for 72 hrs by qRT-PCR analysis. The data set is classed as functional, organism-based, Hepacivirus hominis. As to conditions: Huh-7, 72 h.
The test system of data set [2] is Vaccinia virus. In words: Antiviral activity against Vaccinia virus. As to conditions: Orthopoxvirus vaccinia. It counts as functional, organism-based.
The nature of data set [3]: Cytotoxicity against human HFF cells. The data set is classed as toxicity, cell-based.
Data set [4] relates to Human betaherpesvirus 5. Nature of the data set: Antiviral activity against HCMV. It counts as functional, organism-based.
In data set [5] the test system is HEL. Nature of the data set: Cytotoxicity against human HEL cells assessed as reduction in cell viability incubated for 24 hrs by MTT assay. It counts as functional. For orientation: Tetrazolium assays rely on reduction of a dye to a coloured formazan, in cell work by metabolically active cells.
Data set [6] concerns SARS-CoV-2. In words: Antiviral activity against SARS CoV-2 Omicron B1.1.529 infected in Vero E6 cells at 0.02 MOI assessed as reduction in viral RNA growth incubated for 24 hrs by qRT-PCR analysis. The data set is classed as functional, organism-based. Particulars: Severe acute respiratory syndrome coronavirus 2, Omicron B1.1.529, Vero C1008, 24 h.
Data set [7] in a line: Cytotoxicity against African green monkey Vero E6 cells assessed as reduction in cell viability by Cell titer-Glo luminescent assay. It counts as toxicity, cell-based. As to conditions: chlorocebus sabaeus. A general note: In ATP-based viability assays light output follows the ATP content of the culture.
Data set [8] deals with Influenza A virus. In words: Antiviral activity against influenza A virus A/WSN/33 (H1N1) infected in dog MDCK cells assessed as reduction in virus induced cytopathic effect measured after 48 hrs by crystal violet staining based assay. It counts as functional, organism-based.
Data set [9] deals with Influenza A virus. In words: Antiviral activity against Influenza virus H3N2 (A/Hong Kong/8/68) infected in dog MDCK cells assessed as reduction in virus induced cytopathic effect measured after 48 hrs by crystal violet staining based assay. The data set is classed as functional, organism-based. (Damage to the host cells serves as the signal in cytopathic effect assays.)
The nature of data set [10]: Cytotoxicity against dog MDCK cells assessed as reduction in cell viability incubated for 72 hrs by CCK-8 assay. The data set is classed as toxicity, cell-based, Canis lupus familiaris.
Data set [11] in a line: Cytotoxicity against human HEL cells. It counts as toxicity, cell-based.
Data set [12] has as its system Human alphaherpesvirus 3. In words: Antiviral activity against Varicella zoster virus infected in human HEL cells assessed as reduction in plaque formation incubated for 72 hrs. Particulars: Human alphaherpesvirus 3, HEL. The data set is classed as functional, organism-based.
In data set [13] the test system is Ebolavirus. In words: Antiviral activity against Ebola virus infected in Vero E6 cells assessed as virus-induced cytopathic effect incubated for 3 days by CPE assay. It counts as functional, organism-based. Particulars: Orthoebolavirus, Vero C1008, 72 h.
Data set [14] can be described thus: Cytotoxicity against African green monkey Vero E6 cells assessed as reduction in cell growth. It counts as toxicity, cell-based. Particulars: chlorocebus sabaeus.
Data set [15] has as its target Histone-lysine N-methyltransferase SETD2 (Homo sapiens, UniProt Q9BYW2). In words: Inhibition of human recombinant […] N-terminal His-tagged SETD2 (1347to1711 residues) extracted from Escherichia coli BL21 (DE3) using biotin-tagged Histone H3 and 3H-SAM as substrate incubated for 1 hr by TopCount scintillation proximity assay.
A short description of data set [16]: Cytotoxicity against human HEL 299 cells. It counts as toxicity, cell-based.
For data set [17], the system named is Human alphaherpesvirus 3. In words: Antiviral activity against Varicella zoster virus infected in human HEL cells assessed as reduction in plaque formation. The data set is classed as functional, organism-based. Particulars: Human alphaherpesvirus 3, HEL.
Data set [18] has as its target RNA-directed RNA polymerase (Hepacivirus hominis, UniProt O39930). Nature of the data set: Inhibition of Hepatitis C virus NS5B polymerase.
In data set [19] the test system is Hepatitis C virus. In words: Antiviral activity against Hepatitis C virus infected in Vero E6 cells assessed as virus induced cytopathic effect. Particulars: Vero C1008. It counts as functional, organism-based, Hepacivirus hominis.
Data set [20] concerns Influenza A virus. Nature of the data set: Antiviral activity against influenza A virus H1N1 infected in dog MDCK cells assessed as reduction in virus induced cytopathic effect by CPE assay. The data set is classed as functional, organism-based.
Data set [21] relates to Influenza A virus. In words: Anti-influenza activity against influenza A virus H3N2 (A/California/2014) infected in dog MDCK cells incubated for 72 hrs by MTT assay. It counts as functional, organism-based.
Data set [22] can be described thus: Cytotoxicity against dog MDCK cells assessed as reduction in cell viability incubated for 48 hrs by CCK-8 assay. The data set is classed as toxicity, cell-based, Canis lupus familiaris.
For data set [23], the target named is Replicase polyprotein 1ab (Severe acute respiratory syndrome coronavirus 2, UniProt P0DTD1). Nature of the data set: Inhibition of C-terminal SARS-CoV-2 nsp14 N7-methyltransferase activity incubated for 30 mins in presence of SAM by Liquid scintillation analysis.

For orientation: EC50 means the concentration at which the effect is half-maximal. A word on the CC50: it is the concentration at which the toxic effect on the cells reaches its halfway point. What is called IC50 is the concentration needed to halve the response being measured.

Sequence of RNA-directed RNA polymerase (O39930 whole entry): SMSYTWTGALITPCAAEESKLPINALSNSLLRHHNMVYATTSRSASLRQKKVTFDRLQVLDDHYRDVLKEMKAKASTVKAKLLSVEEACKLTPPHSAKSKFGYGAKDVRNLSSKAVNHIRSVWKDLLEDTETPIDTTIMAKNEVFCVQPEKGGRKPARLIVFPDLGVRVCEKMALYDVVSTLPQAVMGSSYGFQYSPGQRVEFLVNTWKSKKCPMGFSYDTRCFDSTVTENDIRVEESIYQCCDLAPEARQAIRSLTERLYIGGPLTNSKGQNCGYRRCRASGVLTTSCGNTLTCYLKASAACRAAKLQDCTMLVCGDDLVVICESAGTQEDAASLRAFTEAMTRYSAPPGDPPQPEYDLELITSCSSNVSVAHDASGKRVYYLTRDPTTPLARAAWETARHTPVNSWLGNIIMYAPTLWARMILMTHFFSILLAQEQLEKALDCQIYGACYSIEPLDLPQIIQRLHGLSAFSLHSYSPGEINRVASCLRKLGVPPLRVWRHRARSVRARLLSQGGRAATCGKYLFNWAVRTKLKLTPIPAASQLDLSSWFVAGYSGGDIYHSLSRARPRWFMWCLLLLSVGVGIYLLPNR
Sequence of Histone-lysine N-methyltransferase SETD2 (Q9BYW2 whole entry, the tested form may be a part): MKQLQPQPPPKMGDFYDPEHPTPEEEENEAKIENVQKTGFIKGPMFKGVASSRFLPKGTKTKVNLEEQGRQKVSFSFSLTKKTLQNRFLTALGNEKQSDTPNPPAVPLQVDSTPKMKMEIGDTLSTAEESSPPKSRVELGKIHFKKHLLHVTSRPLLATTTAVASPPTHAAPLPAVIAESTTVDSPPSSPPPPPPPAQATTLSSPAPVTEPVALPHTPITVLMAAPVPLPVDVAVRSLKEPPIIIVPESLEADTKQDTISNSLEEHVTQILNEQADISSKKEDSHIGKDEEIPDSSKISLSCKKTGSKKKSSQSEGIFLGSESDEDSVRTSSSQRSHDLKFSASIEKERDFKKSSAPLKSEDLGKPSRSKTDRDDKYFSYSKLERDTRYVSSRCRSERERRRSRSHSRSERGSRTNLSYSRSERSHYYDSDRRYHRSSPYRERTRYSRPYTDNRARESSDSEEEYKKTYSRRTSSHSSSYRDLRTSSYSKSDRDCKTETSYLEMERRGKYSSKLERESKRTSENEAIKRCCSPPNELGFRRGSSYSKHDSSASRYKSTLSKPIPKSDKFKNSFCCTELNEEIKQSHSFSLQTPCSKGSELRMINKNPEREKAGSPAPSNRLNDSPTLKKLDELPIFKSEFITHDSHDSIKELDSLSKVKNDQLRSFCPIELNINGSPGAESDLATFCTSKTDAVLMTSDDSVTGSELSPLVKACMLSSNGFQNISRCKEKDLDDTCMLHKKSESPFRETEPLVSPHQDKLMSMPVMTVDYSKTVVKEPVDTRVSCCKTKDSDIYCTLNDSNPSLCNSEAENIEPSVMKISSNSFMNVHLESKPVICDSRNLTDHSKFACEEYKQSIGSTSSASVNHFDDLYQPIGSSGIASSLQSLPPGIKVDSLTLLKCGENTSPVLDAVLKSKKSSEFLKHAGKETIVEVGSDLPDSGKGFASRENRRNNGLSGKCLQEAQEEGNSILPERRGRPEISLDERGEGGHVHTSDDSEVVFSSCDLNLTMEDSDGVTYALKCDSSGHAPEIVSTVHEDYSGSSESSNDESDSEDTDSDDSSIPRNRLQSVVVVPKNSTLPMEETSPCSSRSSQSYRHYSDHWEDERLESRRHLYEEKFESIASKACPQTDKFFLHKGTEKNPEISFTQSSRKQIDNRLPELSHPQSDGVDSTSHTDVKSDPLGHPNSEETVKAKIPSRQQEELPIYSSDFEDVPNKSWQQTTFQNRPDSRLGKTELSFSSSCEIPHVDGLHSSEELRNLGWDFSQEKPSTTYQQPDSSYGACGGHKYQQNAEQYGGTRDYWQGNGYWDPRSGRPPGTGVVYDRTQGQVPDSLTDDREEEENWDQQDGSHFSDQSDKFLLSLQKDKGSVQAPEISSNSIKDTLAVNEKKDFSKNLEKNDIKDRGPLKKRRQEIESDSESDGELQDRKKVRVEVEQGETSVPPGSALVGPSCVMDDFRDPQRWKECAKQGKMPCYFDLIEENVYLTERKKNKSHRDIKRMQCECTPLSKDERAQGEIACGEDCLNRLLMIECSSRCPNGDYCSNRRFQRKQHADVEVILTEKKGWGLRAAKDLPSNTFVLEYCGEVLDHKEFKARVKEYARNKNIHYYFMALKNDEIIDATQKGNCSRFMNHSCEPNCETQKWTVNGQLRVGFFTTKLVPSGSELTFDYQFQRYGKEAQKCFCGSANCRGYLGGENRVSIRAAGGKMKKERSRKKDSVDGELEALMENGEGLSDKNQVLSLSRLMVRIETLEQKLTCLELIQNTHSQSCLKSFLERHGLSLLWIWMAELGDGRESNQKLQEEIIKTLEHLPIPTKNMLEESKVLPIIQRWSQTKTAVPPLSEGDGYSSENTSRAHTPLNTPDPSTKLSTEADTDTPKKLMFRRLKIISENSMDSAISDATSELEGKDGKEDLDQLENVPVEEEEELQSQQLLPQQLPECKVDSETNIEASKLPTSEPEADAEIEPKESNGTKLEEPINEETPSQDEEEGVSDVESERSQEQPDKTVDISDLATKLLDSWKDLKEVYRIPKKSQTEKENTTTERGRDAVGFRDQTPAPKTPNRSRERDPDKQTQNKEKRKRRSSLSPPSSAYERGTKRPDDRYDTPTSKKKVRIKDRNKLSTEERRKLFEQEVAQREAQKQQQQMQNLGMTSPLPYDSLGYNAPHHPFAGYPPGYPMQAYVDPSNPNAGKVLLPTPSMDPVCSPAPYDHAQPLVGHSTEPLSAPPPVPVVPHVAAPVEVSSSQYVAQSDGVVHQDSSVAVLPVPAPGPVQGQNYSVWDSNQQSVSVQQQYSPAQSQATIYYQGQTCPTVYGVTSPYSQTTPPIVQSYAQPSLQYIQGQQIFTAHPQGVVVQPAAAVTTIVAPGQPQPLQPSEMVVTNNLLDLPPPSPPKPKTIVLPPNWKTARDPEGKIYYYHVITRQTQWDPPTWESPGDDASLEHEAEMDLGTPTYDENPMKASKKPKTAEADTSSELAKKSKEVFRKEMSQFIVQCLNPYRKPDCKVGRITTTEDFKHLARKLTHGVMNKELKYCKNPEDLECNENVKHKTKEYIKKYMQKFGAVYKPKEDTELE

Regarding `CC(C)OC(=O)[C@H](C)N[P@](=O)(OC[C@H]1O[C@@H](n2ccc(=O)[nH]c2=O)[C@](C)(F)[C@@H]1O)Oc1ccccc1` [SOFOSBUVIR], the EC50 in data set [1] came out at 92 nM.

For `CCCCCOCCCCCCCCCc1cc2cn([C@@H]3CC[C@H](CO)O3)c(=O)nc2o1`, the EC50 in data set [2] was found to be 0.19 µM. Moreover, the CC50 in data set [3] is above 100 µM.

With `OC[C@@H]1O[C@H](n2cnc3cc(Br)c(Br)cc32)[C@@H](O)[C@H]1O`, a half-maximal effect in [4] (EC50) was put at 1.2 µM.

On to `O=c1nc2c(cn1[C@H]1C[C@H](O)[C@@H](CO)O1)Oc1ccccc1N2`, for which the CC50 in data set [5] is above 100 µM.

With `CC(C)C(=O)OC[C@H]1O[C@@H](n2ccc(NO)nc2=O)[C@H](O)[C@@H]1O` [MOLNUPIRAVIR], the EC50 in [6] is 1080 nM. Further, the CC50 in data set [7] is above 100 µM.

On to `Cc1ncnc2c1c(/C=C/c1ccccn1)cn2[C@@H]1O[C@H](CO)[C@@H](O)[C@@]1(C)F`, for which the EC50 was determined as 5.88 µM in data set [8] and 6.95 µM in data set [9]. Besides, in data set [10], the cytotoxic concentration (CC50) at 72 h was above 100 µM.

In data set [11], `O=c1nc2oc(CCCCCCCCCF)cc2cn1[C@H]1C[C@H](O)[C@@H](CO)O1` gave a CC50 of 200 µM. The EC50 in data set [12] is 14 nM.

Turning to `Cc1ncnc2c1c(/C=C/c1cccs1)cn2[C@@H]1O[C@H](CO)[C@@H](O)[C@@]1(C)F`, the values for the EC50 in [8] and in data set [9] were 3.95 µM and 3.61 µM, respectively. Further, the half-maximal cytotoxic concentration (CC50) at 72 h in [10] is above 100 µM.

As for `O=c1[nH]cnc2c([C@@H]3N[C@H](CO)[C@@H](O)[C@H]3O)c[nH]c12` [FORODESINE], in [7], the CC50 was above 100 µM.

In the case of `Nc1nccc2c1ncn2[C@@H]1C[C@H](CO)[C@@H](O)[C@H]1O` [3-DEAZAARISTEROMYCIN A], in data set [13], the EC50 came to 2000 nM. For the same compound, the CC50 in data set [14] was above 100 µM.

In the case of `Nc1ncnc2c1ncn2[C@@H]1O[C@H](C[C@H](CC[C@H](N)C(=O)O)NCc2ccccc2)[C@@H](O)[C@H]1O`, in data set [15], the IC50 was found to be 480 nM.

Compound `Nc1nc2c(ncn2C[Se]C(CO)CO)c(=O)[nH]1` registered a CC50 in [16] above 100 µM. For the same compound, a half-maximal effect in data set [4] (EC50) was put at 53.1 µM.

As for `OC[C@H]1O[C@@H](n2cnc3c(N[C@@H]4CCOC4)ncnc32)[C@H](O)[C@@H]1O` [TECADENOSON], in [6], the 50% effective concentration (EC50) amounted to 1130 nM. Moreover, the CC50 in data set [7] is above 100 µM.

`COc1ccc(C(OC[C@H]2O[C@@H](n3cc4c(nc3=O)Nc3ccccc3O4)C[C@@H]2O)(c2ccccc2)c2ccc(OC)cc2)cc1`: the 50% cytotoxic concentration (CC50) in data set [5] stood at 12.2 µM. Further, in data set [17], the concentration for a half-maximal effect (EC50) was found to be 1500 nM.

In turn, `O=c1nc(NO)ccn1[C@@H]1O[C@H](CO)[C@@H](O)[C@H]1O` [N-HYDROXYCYTIDINE] came in with an IC50 in data set [18] of 50 µM. Besides, the EC50 in [19] was found to be 5 µM.

`NC(=O)c1nc(F)cnc1O` [FAVIPIRAVIR]: the results for the EC50 in data set [20] and in data set [21] were 0.03 µg/mL (≈ 0.191 µM) and 0.07 µg/mL (≈ 0.446 µM), respectively. For the same compound, the CC50 at 48 h in [22] is above 100 µM.

In data set [2], `Nc1ccn(C[C@@H](CO)OCP(=O)(O)O)c(=O)n1` [CIDOFOVIR ANHYDROUS] yielded an EC50 of 27.3 µM. This compound also displayed a CC50 in [3] above 100 µM.

In the case of `Nc1ncnc2c1c(C#Cc1cnc3ccccc3c1)cn2[C@@H]1O[C@H](CSCC[C@H](N)C(=O)O)[C@@H](O)[C@H]1O`, in data set [23], the IC50 is 3 nM.

In the case of `Nc1ncnc2c1ncn2[C@@H]1O[C@H](CO)[C@@H](O)[C@@H]1O` [VIDARABINE], the EC50 in data set [6] stood at 251 nM. In addition, the CC50 in [7] was above 100 µM.

With `COc1ccc(C(OC[C@H]2O[C@@H](n3cc4c(nc3=O)Nc3c(OCCN)cccc3O4)C[C@@H]2O)(c2ccccc2)c2ccc(OC)cc2)cc1`, the CC50 in [5] was 14.4 µM. For the same compound, the EC50 in [17] was determined as 1700 nM.

With `CCC(CC)COC(=O)[C@H](C)N[P@](=O)(OC[C@H]1O[C@@](C#N)(c2ccc3c(N)ncnn23)[C@H](O)[C@@H]1O)Oc1ccccc1` [REMDESIVIR], in [6], the EC50 amounted to 981 nM. Besides, the CC50 in data set [7] is above 100 µM.
